Test results taken from PubChem BioAssay (NCI).
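Exposure lasted 48 hours, with cells grown in 96-well plates and compounds tested at five concentrations. TGI denotes the concentration required for complete inhibition of growth.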

Tests used:
Test in all cases: NCI anticancer screen, dose series, 48 h
RXF 393 renal = tested on: RXF 393 renal
NCI-H522 lung = tested on: NCI-H522 lung
LOX IMVI melanoma = tested on: LOX IMVI melanoma
SW-620 colon = tested on: SW-620 colon
IGROV1 ovarian = tested on: IGROV1 ovarian
MALME-3M melanoma = tested on: MALME-3M melanoma
DU-145 prostate = tested on: DU-145 prostate
NCI-H23 lung = tested on: NCI-H23 lung
HCT-116 colon = tested on: HCT-116 colon
MDA-N = tested on: MDA-N
CAKI-1 renal = tested on: CAKI-1 renal
MDA-MB-231 breast = tested on: MDA-MB-231 breast
UACC-257 melanoma = tested on: UACC-257 melanoma
HOP-62 NSCLC = tested on: HOP-62 NSCLC
K-562 leukemia = tested on: K-562 leukemia
HOP-92 NSCLC = tested on: HOP-92 NSCLC
M14 melanoma = tested on: M14 melanoma
OVCAR-4 ovarian = tested on: OVCAR-4 ovarian
HS 578T breast = tested on: HS 578T breast
HT29 colon = tested on: HT29 colon
KM12 colon = tested on: KM12 colon
OVCAR-8 ovarian = tested on: OVCAR-8 ovarian
SNB-19 CNS = tested on: SNB-19 CNS
A498 renal = tested on: A498 renal
SK-MEL-5 melanoma = tested on: SK-MEL-5 melanoma
HCT-15 colon = tested on: HCT-15 colon
SN12C renal = tested on: SN12C renal
HCC-2998 colon = tested on: HCC-2998 colon
SK-MEL-2 melanoma = tested on: SK-MEL-2 melanoma
MOLT-4 leukemia = tested on: MOLT-4 leukemia
786-0 renal = tested on: 786-0 renal
OVCAR-3 ovarian = tested on: OVCAR-3 ovarian
NCI/ADR-RES ovarian = tested on: NCI/ADR-RES ovarian
PC-3 prostate = tested on: PC-3 prostate
BT-549 breast = tested on: BT-549 breast
SK-OV-3 ovarian = tested on: SK-OV-3 ovarian
CCRF-CEM leukemia = tested on: CCRF-CEM leukemia
SF-268 CNS = tested on: SF-268 CNS
U251 CNS = tested on: U251 CNS
HL-60(TB) leukemia = tested on: HL-60(TB) leukemia
SF-539 CNS = tested on: SF-539 CNS
MCF7 breast = tested on: MCF7 breast
TK-10 renal = tested on: TK-10 renal
NCI-H226 lung = tested on: NCI-H226 lung
UACC-62 melanoma = tested on: UACC-62 melanoma
ACHN renal = tested on: ACHN renal
SR leukemia = tested on: SR leukemia
OVCAR-5 ovarian = tested on: OVCAR-5 ovarian
MDA-MB-435 = tested on: MDA-MB-435
EKVX NSCLC = tested on: EKVX NSCLC
SK-MEL-28 melanoma = tested on: SK-MEL-28 melanoma
SF-295 CNS = tested on: SF-295 CNS
COLO 205 colon = tested on: COLO 205 colon
NCI-H460 lung = tested on: NCI-H460 lung
T-47D breast = tested on: T-47D breast
UO-31 renal = tested on: UO-31 renal
A549 NSCLC = tested on: A549 NSCLC
SNB-75 CNS = tested on: SNB-75 CNS

Compound: CCCNc1[nH]c(C(C)=O)c(N)c1C(=S)Nc1ccccc1
- TGI (RXF 393 renal): 65.3 µM
- TGI (NCI-H522 lung): > 100 µM
- TGI (LOX IMVI melanoma): 63.4 µM
- TGI (SW-620 colon): > 100 µM
- TGI (IGROV1 ovarian): > 100 µM
- TGI (MALME-3M melanoma): 83.9 µM
- TGI (DU-145 prostate): > 100 µM
- TGI (NCI-H23 lung): > 100 µM
- TGI (HCT-116 colon): > 100 µM
- TGI (MDA-N): > 100 µM
- TGI (CAKI-1 renal): > 100 µM
- TGI (MDA-MB-231 breast): > 100 µM
- TGI (UACC-257 melanoma): > 100 µM
- TGI (HOP-62 NSCLC): > 100 µM
- TGI (K-562 leukemia): > 100 µM
- TGI (HOP-92 NSCLC): > 100 µM
- TGI (M14 melanoma): 36.8 µM
- TGI (OVCAR-4 ovarian): 74.5 µM
- TGI (HS 578T breast): > 100 µM
- TGI (HT29 colon): 53.2 µM
- TGI (KM12 colon): > 100 µM
- TGI (OVCAR-8 ovarian): > 100 µM
- TGI (SNB-19 CNS): > 100 µM
- TGI (A498 renal): > 100 µM
- TGI (SK-MEL-5 melanoma): 52.3 µM
- TGI (HCT-15 colon): > 100 µM
- TGI (SN12C renal): > 100 µM
- TGI (HCC-2998 colon): > 100 µM
- TGI (SK-MEL-2 melanoma): > 100 µM
- TGI (MOLT-4 leukemia): > 100 µM
- TGI (786-0 renal): 75.6 µM
- TGI (OVCAR-3 ovarian): > 100 µM
- TGI (NCI/ADR-RES ovarian): > 100 µM
- TGI (PC-3 prostate): > 100 µM
- TGI (BT-549 breast): 68.4 µM
- TGI (SK-OV-3 ovarian): > 100 µM
- TGI (CCRF-CEM leukemia): > 100 µM
- TGI (SF-268 CNS): 86.8 µM
- TGI (U251 CNS): > 100 µM
- TGI (HL-60(TB) leukemia): > 100 µM
- TGI (SF-539 CNS): 65.4 µM
- TGI (MCF7 breast): 45.4 µM
- TGI (TK-10 renal): > 100 µM
- TGI (NCI-H226 lung): 75 µM
- TGI (UACC-62 melanoma): 41.6 µM
- TGI (ACHN renal): > 100 µM
- TGI (SR leukemia): > 100 µM
- TGI (OVCAR-5 ovarian): > 100 µM
- TGI (MDA-MB-435): 55.9 µM
- TGI (EKVX NSCLC): > 100 µM
- TGI (SK-MEL-28 melanoma): 68.3 µM
- TGI (SF-295 CNS): > 100 µM
- TGI (COLO 205 colon): > 100 µM
- TGI (NCI-H460 lung): > 100 µM
- TGI (T-47D breast): > 100 µM
- TGI (UO-31 renal): > 100 µM
- TGI (A549 NSCLC): > 100 µM
- TGI (SNB-75 CNS): > 100 µM
